Laboratory results: the supplement of paper PMC8967900

Tests used:
Assay in all cases: selective drug sensitivity score (sDSS, relative to normal bone marrow) (sDSS (score)); higher = more potent and effective on the cell line relative to normal bone marrow cells
Conditions in all cases: 72 h
SUP-B15 = system: SUP-B15
KASUMI-9 = system: KASUMI-9
MOLT-4 = system: MOLT-4
CCRF-HSB2 = system: CCRF-HSB2
MOLT-14 = system: MOLT-14
MOLT-16 = system: MOLT-16
COG-LL-394h = system: COG-LL-394h
COG-LL-402h = system: COG-LL-402h
HAL-01 = system: HAL-01
697 = system: 697
NALM-16 = system: NALM-16
COG-LL-319h = system: COG-LL-319h
P30-OHKUBO = system: P30-OHKUBO
KOPN-8 = system: KOPN-8
MN-60 = system: MN-60
PEER = system: PEER
P12-ICHIKAWA = system: P12-ICHIKAWA
COG-LL-355h = system: COG-LL-355h
NALM-6 = system: NALM-6
COG-LL-317 = system: COG-LL-317
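Also: ALL cell lines in 384-well plates, five doses spanning 10,000-fold, each plate scaled between vehicle and 100 µmol/L benzalkonium chloride controls, sDSS an adapted area-under-curve metric.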

Row | SMILES | selective drug sensitivity score (SUP-B15) | selective drug sensitivity score (KASUMI-9) | selective drug sensitivity score (MOLT-4) | selective drug sensitivity score (CCRF-HSB2) | selective drug sensitivity score (MOLT-14) | selective drug sensitivity score (MOLT-16) | selective drug sensitivity score (COG-LL-394h) | selective drug sensitivity score (COG-LL-402h) | selective drug sensitivity score (HAL-01) | selective drug sensitivity score 697 | selective drug sensitivity score (NALM-16) | selective drug sensitivity score (COG-LL-319h) | selective drug sensitivity score (P30-OHKUBO) | selective drug sensitivity score (KOPN-8) | selective drug sensitivity score (MN-60) | selective drug sensitivity score (PEER) | selective drug sensitivity score (P12-ICHIKAWA) | selective drug sensitivity score (COG-LL-355h) | selective drug sensitivity score (NALM-6) | selective drug sensitivity score (COG-LL-317)
1 | O=C(Nc1nc2cccc(-c3ccc(CN4CCS(=O)(=O)CC4)cc3)n2n1)C1CC1 [Filgotinib] (top concentration 10000 nM) | -0.64 | 0.26 | -5.34 | -2.54 | -0.44 | 4.86 | -3.34 | -1.54 | 5.66 | 0.06 | -5.34 | -3.74 | 2.56 | 5.46 | -2.64 | -2.04 | -1.64 | 0.96 | -2.44 | 1.16
2 | Cn1cc(-c2[nH]c3cc(NC(=O)[C@H](N)C4CCCCC4)cc4c3c2C=NNC4=O)cn1 (top concentration 10000 nM) | 6.58 | 7.88 | 3.38 | 6.98 | 2.68 | 9.68 | -0.72 | 7.08 | -6.52 | 9.38 | 3.98 | 11.5 | 9.08 | 7.38 | -1.82 | 5.68 | 7.38 | 1.98 | 6.28 | 6.08
3 | C#Cc1cccc(Nc2ncnc3cc(OCCOC)c(OCCOC)cc23)c1 [Erlotinib] (top concentration 10000 nM) | 8.96 | 3.26 | 1.56 | 4.66 | 4.06 | 4.36 | 2.66 | 4.06 | 0.46 | 5.86 | -1.24 | 16.2 | 2.96 | 7.06 | 0.96 | 5.16 | 1.56 | 3.46 | -1.24 | 0.16
4 | C[C@@H]1COC(Nc2ccc3ncnc(Nc4ccc(OCc5nccs5)c(Cl)c4)c3c2)=N1 [Varlitinib] (top concentration 10000 nM) | 6.82 | 4.72 | -0.18 | 0.12 | -0.18 | -0.18 | -0.18 | -0.18 | -0.18 | 3.82 | 0.92 | 18.8 | 4.32 | 8.32 | 0.02 | 0.12 | 3.02 | 0.92 | -0.18 | -0.18
5 | CC(=O)c1c(C)c2cnc(Nc3ccc(N4CCNCC4)cn3)nc2n(C2CCCC2)c1=O [Palbociclib] (top concentration 10000 nM) | 2.38 | 8.78 | 1.08 | 1.68 | 2.48 | 8.58 | -5.62 | 8.78 | 1.48 | 14.3 | 1.98 | 0.38 | 9.58 | 16.5 | -0.62 | 5.38 | 4.78 | 2.88 | 3.68 | 0.98
6 | C[C@H]1O[C@@H](O[C@H]2[C@@H](O)C[C@H](O[C@H]3[C@@H](O)C[C@H](O[C@H]4CC[C@@]5(C)[C@H](CC[C@@H]6[C@@H]5C[C@@H](O)[C@]5(C)[C@@H](C7=CC(=O)OC7)CC[C@]65O)C4)O[C@@H]3C)O[C@@H]2C)C[C@H](O)[C@@H]1O [Digoxin] (top concentration 1000 nM) | 9.2 | 7.1 | 12.3 | 6.6 | 8 | 12 | 4.1 | 6.4 | 9.9 | 8.6 | 4.9 | 10.3 | 9.1 | 12.9 | 2.7 | 5.5 | 8.2 | 8.7 | 10.5 | 8.7
7 | Cc1c(-c2c(-c3ccc(F)o3)sc3ncnc(O[C@H](Cc4ccccc4OCc4ccnn4CC(F)(F)F)C(=O)O)c23)ccc(OCCN2CCN(C)CC2)c1Cl (top concentration 1000 nM) | 6.36 | -1.84 | -2.84 | -5.14 | 3.06 | 7.46 | -4.54 | 6.06 | -7.74 | -0.84 | -4.64 | 15.8 | 1.26 | 13.4 | -7.74 | -0.14 | -5.84 | 4.66 | -3.44 | -2.84
8 | Cc1nc(NC(=O)N2CCC[C@H]2C(N)=O)sc1-c1ccnc(C(C)(C)C(F)(F)F)c1 [Alpelisib] (top concentration 2500 nM) | -0.82 | 1.18 | 0.88 | 1.68 | -0.82 | -0.72 | 0.78 | 4.18 | 0.78 | 1.08 | 1.38 | 12.5 | 2.78 | 5.38 | 1.18 | -0.42 | -0.32 | 5.98 | 3.88 | -0.42
9 | CC(C)[C@H]1C(=O)N[C@@H](CCCNC(=N)N)C(=O)NCC(=O)N[C@@H](CC(=O)O)C(=O)N[C@H](Cc2ccccc2)C(=O)N1C [Cilengitide] (top concentration 10000 nM) | 0 | 0 | 0 | 0 | 0 | 0 | 0 | 0 | 6.5 | 0 | 0 | 0 | 4.2 | 13.8 | 0 | 0 | 0 | 0 | 0 | 0
